Earlier results on 1 compound are cited in patent US5869336A, “Recombinant enzymatically active calpain expressed in a baculovirus system” (Cephalon, Inc., priority 1997, dated 1999).

Data set [1] relates to vulnerable hippocampal neurons. The conditions noted are these: in vivo; cited from earlier work.
A further data set deals with calpain. The conditions noted are these: in vivo; cited from earlier work.
Data set [2] has as its system EAA-induced protein breakdown. The conditions noted are these: in vivo; cited from earlier work.
The subject of a further data set is cells. The conditions noted are these: cited from earlier work.
A further data set deals with neurons. The conditions noted are these: rats, clamping both carotid arteries and lowering arterial blood pressure; cited from earlier work.

As to `CC(=O)N[C@@H](CC(C)C)C(=O)N[C@@H](CC(C)C)C(=O)N[C@H](C=O)CCCNC(=N)N` [leupeptin], in data set [1], the “protection against degeneration of hippocampal neurons after ischemia” value is given as “protected against the degeneration of vulnerable hippocampal neurons after ischemia”. Further, the “block of trauma-evoked calpain response” value in the data set on calpain is listed as “block a trauma-evoked calpain response in vivo”. Also, in data set [2], the “lowering EAA-induced protein breakdown” value was “unsuccessful”. Further, the “uptake by cells” value in the data set with cells was “failed to enter the cells”. The “protection of neurons against ischemic and hypoxic damage” value in the data set on neurons is “protected neurons against ischemic and hypoxic damage”.
